Laboratory results published in patent US10633389B2, “CARM1 inhibitors and uses thereof” (Epizyme, Inc., priority 2013, dated 2020).

Columns and labels:
[1] = target: human CARM1 (PRMT4) (Homo sapiens (Human), UniProt Q86X55); assay: CARM1 enzyme assay on peptide substrate (3H-SAM Flashplate); details: Biochemical potencies, read-out: Biochem IC50
Excerpt: S-adenosylmethionine (SAM), S-adenosylhomocysteine (SAH), bicine, Tween20, dimethylsulfoxide (DMSO), bovine skin gelatin (BSG), sodium butyrate and Tris(2-carboxyethyl)phosphine hydrochloride solution (TCEP) were purchased from Sigma-Aldrich at the highest level of purity possible. ^3H-SAM was purchase from American Radiolabeled Chemicals with a specific activity of 80 Ci/mmol. 384-well streptavidin Flashplates were purchased from PerkinElmer.
Peptide representative of human histone H3 residues 16-30 was synthesized with an N-terminal linker-affinity tag motif and a C-terminal amide cap by 21st Century Biochemicals. […] The sequence was Biot-Ahx-[…]-amide and contained a monomethylated arginine at position 26 (SEQ ID NO.:1).
The gene sequence encoding isoform 1 containing a deletion of amino acids 539-561 was amplified subsequently and subcloned into pFastBacMam (Viva Biotech).
Recombinant baculovirus were generated according to Bac-to-Bac kit instructions (Life Technologies). Protein over-expression was accomplished by infecting exponentially growing HEK 293F cell culture at 1.3×10^6 cell/ml with virus (MOI=10) in the presence of 8 mM sodium butyrate. Infections were carried out at 37° C. for 48 hours, harvested by centrifugation, and stored at −80° C. for purification.
Expressed full-length human Flag- and His-tagged CARM1 protein was purified from cell paste by anti-flag M2 affinity chromatography with resin equilibrated with buffer containing 20 mM Tris, 150 mM NaC, 5% glycerol, pH 7.8. Column was washed with 500 mM NaCl in buffer A and Flag-CARM1-His was eluted with 200 ug/ml FLAG peptide in buffer A. Pooled fractions were dialyzed in 20 mM Tris, 150 mM NaCl, 5% glycerol and 1 mM DTT, pH 7.8.
The assays were all performed in a buffer consisting of 20 mM Bicine (pH=7.6), 1 mM TCEP, 0.005% BSG, and 0.002% Tween 20, prepared on the day of use. Compounds in 100% DMSO (1 ul) were spotted into a polypropylene 384-well V-bottom plates (Greiner) using a Platemate Plus outfitted with a 384-channel head (Thermo Scientific). DMSO (1 ul) was added to Columns 11, 12, 23, 24, rows A-H for the maximum signal control and 1 ul of SAH, a known product and inhibitor of CARM1, was added to columns 11, 12, 23, 24, rows I-P for the minimum signal control. A cocktail (40 ul) containing the CARM1 enzyme was added by Multidrop Combi (Thermo-Fisher). The compounds were allowed to incubate with CARM1 for 30 min at room temperature, then a cocktail (10 ul) containing ^3H-SAM and peptide was added to initiate the reaction (final volume=51 ul). The final concentrations of the components were as follows: CARM1 was 0.25 nM, ^3H-SAM was 30 nM, peptide was 250 nM, SAH in the minimum signal control wells was 1 mM, and the DMSO concentration was 2%. The assays were stopped by the addition of non-radiolabeled SAM (10 ul) to a final concentration of 300 uM, which dilutes the ^3H-SAM to a level where its incorporation into the peptide substrate is no longer detectable. 50 ul of the reaction in the 384-well polypropylene plate was then transferred to a 384-well Flashplate and the biotinylated peptides were allowed to bind to the streptavidin surface for at least 1 hour before being washed once with 0.1% Tween20 in a Biotek ELx405 plate washer. The plates were then read in a PerkinElmer TopCount plate reader to measure the quantity of ^3H-labeled peptide bound to the Flashplate surface, measured as disintegrations per minute (dpm) or alternatively, referred to as counts per minute (cpm).
The Hill Coefficient normally allowed to float but may also be fixed at 1 in a 3-parameter fit.

[2] = tested on: asymmetric di-methyl PABP1 in RKO cells; assay: RKO methylation assay, In Cell Western (ICW) for asymmetric di-methyl PABP1; format: cell-based; details: Homo sapiens, RKO, Cellular potencies, ICW PABP1me2a
In short: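 RKO cells treated with compound for 48 h at 37 °C, then fixed, permeabilized and immunostained for asymmetric di-methyl PABP1, with DRAQ5 as DNA stain. Infrared 700/800 nm signal ratio normalized to DMSO and 20 μM reference-compound controls; IC50 from triplicate wells.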

Sequence of human CARM1 (PRMT4) (Q86X55 other isoform, or with tags, fused parts or gaps isoform Q86X55-1): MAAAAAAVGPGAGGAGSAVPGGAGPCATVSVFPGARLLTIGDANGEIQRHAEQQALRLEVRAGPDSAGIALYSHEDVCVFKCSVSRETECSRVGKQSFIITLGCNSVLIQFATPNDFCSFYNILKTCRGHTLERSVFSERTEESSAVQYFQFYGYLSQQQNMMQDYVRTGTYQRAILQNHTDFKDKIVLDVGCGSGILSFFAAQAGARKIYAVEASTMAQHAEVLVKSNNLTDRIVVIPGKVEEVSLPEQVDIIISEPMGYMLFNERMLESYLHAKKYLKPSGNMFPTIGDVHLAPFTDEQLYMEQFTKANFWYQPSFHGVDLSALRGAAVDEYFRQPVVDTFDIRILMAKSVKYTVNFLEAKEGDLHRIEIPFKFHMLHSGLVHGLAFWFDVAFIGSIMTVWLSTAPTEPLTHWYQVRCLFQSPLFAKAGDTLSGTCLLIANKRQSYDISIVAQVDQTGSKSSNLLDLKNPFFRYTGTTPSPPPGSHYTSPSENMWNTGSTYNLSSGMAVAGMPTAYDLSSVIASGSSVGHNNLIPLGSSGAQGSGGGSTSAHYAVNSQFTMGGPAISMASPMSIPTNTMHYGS

| IC50 [1] [µM] | IC50 [2] [µM] | Structure (SMILES) |
| --- | --- | --- |
| 0.1 to 1 | 10 to 20 | CNCC(O)COc1cc(Cl)cc(-c2nc(N[C@@H]3CCOC3)c(C)c(C(=O)NCC3CCOCC3)n2)c1 (stereo partly shown) [Example 336-1a] |
| 0.1 to 1 | 5 to 10 | CNCC(O)COc1cccc(-c2nc(N[C@@H]3CCOC3)c(C)c(-c3ccnn3C)n2)c1 (stereo partly shown) [Example 337-1a] |
| 0.1 to 1 | 10 to 20 | CNCC(O)COc1cccc(-c2nc(N[C@@H]3CCOC3)c(C)c(C(=O)NCC3CCOCC3)n2)c1 (stereo partly shown) [Example 346-1a] |
| 0.1 to 1 | 10 to 20 | CNCC(O)COc1cccc(-c2nc(N[C@H]3CCOC3)c(C)c(C3CCOCC3)n2)c1 (stereo partly shown) [Example 347-1a] |
| 0.1 to 1 | 10 to 20 | CNCC(O)COc1cccc(-c2nc(N[C@@H]3CCOC3)c(C)c(-c3cccnc3F)n2)c1 (stereo partly shown) [Example 348-1a] |
| 0.1 to 1 | 10 to 20 | CNCC(O)COc1cccc(-c2nc(N[C@@H]3CCOC3)c(C)c(-c3cc[nH]n3)n2)c1 (stereo partly shown) [Example 349-1a] |
| 0.1 to 1 | 10 to 20 | CNCC(O)COc1cc(Cl)cc(-c2nc(N[C@@H]3CCOC3)c(C)c(C(=O)N(C)CC3CCOCC3)n2)c1 (stereo partly shown) [Example 353-1a] |
| 0.1 to 1 | 10 to 20 | CNCC(O)COc1cccc(-c2nc(N[C@@H]3CCOC3)c(C)c(-c3c(C)nn(C)c3C)n2)c1 (stereo partly shown) [Example 354-1a] |
| 0.1 to 1 | 10 to 20 | CNCC(O)COc1cccc(-c2nc(N[C@@H]3CCOC3)c(C)c(-c3cnc(=O)[nH]c3)n2)c1 (stereo partly shown) [Example 357-1a] |
| 0.1 to 1 | 10 to 20 | CNCC(O)COc1cccc(-c2nc(N3CCOCC3)cc(N(C3CC3)[C@@H]3CCOC3)n2)c1 (stereo partly shown) [Example 360-1a] |
| 0.1 to 1 | 10 to 20 | CNCC(O)COc1cccc(-c2nc(N[C@@H]3CCOC3)c(C)c(N3CCC(O)CC3)n2)c1 (stereo partly shown) [Example 361-1a] |
| 0.1 to 1 | 10 to 20 | CNCC(O)COc1cccc(-c2nc(N[C@@H]3CCOC3)c(C)c(C(=O)N(C)CC3CCOCC3)n2)c1 (stereo partly shown) [Example 364-1a] |
| 0.1 to 1 | 10 to 20 | CNCC(O)COc1cccc(-c2nc(N[C@@H]3CCOC3)c(C)c(N3CCn4c(nnc4C(F)(F)F)C3)n2)c1 (stereo partly shown) [Example 365-1a] |
| 1 to 3 | 10 to 20 | CNCC(O)COc1cccc(-c2nc(N[C@@H]3CCOC3)c(C)c(-c3ccc[nH]c3=O)n2)c1 (stereo partly shown) [Example 371-1a] |
| 1 to 3 | 10 to 20 | CNCC(O)COc1cccc(-c2nc(NC3CCOCC3)cc(N(C3CC3)[C@@H]3CCOC3)n2)c1 (stereo partly shown) [Example 372-1a] |
| 0.1 to 1 | 10 to 20 | CNCC(O)COc1cccc(-c2nc(N[C@H]3CO[C@H]4OCC[C@H]43)cc(N3CCOCC3)n2)c1 (stereo partly shown) [Example 373-1a] |
| 0.1 to 1 | 10 to 20 | CNCC(O)COc1cccc(-c2nc(N[C@H]3CO[C@H]4OCC[C@H]43)c(C)c(N3CCOCC3)n2)c1 (stereo partly shown) [Example 374-1a] |
| 1 to 3 | 10 to 20 | CCN(c1nc(-c2cccc(OCC(O)CNC)c2)nc(N2CCOCC2)c1C)[C@@H]1CCOC1 (stereo partly shown) [Example 375-1a] |
| 0.1 to 1 | 10 to 20 | CNCC(O)COc1cccc(-c2nc(N[C@@H]3CCOC3)c(C)c(N3CCNC(=O)C3)n2)c1 (stereo partly shown) [Example 380-1a] |
| 1 to 3 | 10 to 20 | CNCC(O)COc1cccc(-c2nc(NC3CCOC3)c(C)c(C(=O)NC3CCOCC3)n2)c1 (stereo not shown) [Example 383-1a] |
| 0.1 to 1 | 10 to 20 | CNCC(O)COc1cccc(-c2nc(NC3CCOC3)c(C)c(C(=O)NC)n2)c1 (stereo not shown) [Example 384-1a] |
| 0.1 to 1 | 10 to 20 | CNCC(O)COc1cccc(-c2nc(N[C@@H]3CCOC3)c(C)c(N3CCC(C)(O)CC3)n2)c1 (stereo partly shown) [Example 385-1a] |

| IC50 [1] [µM] | IC50 [2] [µM] | Structure (SMILES) |
| --- | --- | --- |
| 3 to 10 | 10 to 20 | CNCC(O)COc1cccc(-c2nc(N[C@@H]3CCOC3)c(C)c(N3CCC(OCCOC)CC3)n2)c1 (stereo partly shown) [Example 386-1a] |
| 0.1 to 1 | 10 to 20 | CNCC(O)COc1cccc(-c2nc(N[C@@H]3CCOC3)cc(N3CCOCC3)n2)c1 (stereo partly shown) [Example 387-1a] |
| 0.1 to 1 | 10 to 20 | CNCC(O)COc1cccc(-c2nc(N[C@@H]3CCOC3)c(C)c(-c3ccnc(NC)c3)n2)c1 (stereo partly shown) [Example 388-1a] |
| 0.1 to 1 | 10 to 20 | CNCC(O)COc1cccc(-c2nc(N[C@@H]3CCOC3)c(C)c(-c3ccnc(N(C)C)c3)n2)c1 (stereo partly shown) [Example 389-1a] |
| 0.1 to 1 | 10 to 20 | CNCC(O)COc1cccc(-c2nc(N[C@@H]3CCOC3)c(C)c(N(C)Cc3ccccn3)n2)c1 (stereo partly shown) [Example 393-1a] |
| 0.1 to 1 | 10 to 20 | CNCC(O)COc1cccc(-c2nc(N[C@@H]3CCOC3)c(C)c(N3CCC[C@H]3COC)n2)c1 (stereo partly shown) [Example 395-1a] |
| 0.1 to 1 | 10 to 20 | CNCC(O)COc1cccc(-c2nc(NC3CCOC3)c(C)c(N3CCC(O)(CCO)CC3)n2)c1 (stereo not shown) [Example 399-1a] |
| 0.1 to 1 | 5 to 10 | CNCC(O)COc1cccc(-c2nc(NC3CCOC3)c(C)c(N3CCC4(CCO4)CC3)n2)c1 (stereo not shown) [Example 400-1a] |
| 0.1 to 1 | 10 to 20 | CNCC(O)COc1cccc(-c2nc(NC3CCOC3)c(C)c(N3CCCC4(CCOCC4)C3)n2)c1 (stereo not shown) [Example 401-1a] |
| 3 to 10 | 10 to 20 | CNCC(O)COc1cccc(-c2nc(NC3CCOC3)c(C)c(C(=O)N(C)C3CCOCC3)n2)c1 (stereo not shown) [Example 402-1a] |
| 3 to 10 | 10 to 20 | CNCC(O)COc1cccc(-c2nc(N[C@@H]3CCOC3)c(C)c(C(=O)N3CCOCC3)n2)c1 (stereo partly shown) [Example 403-1a] |
| 0.1 to 1 | 10 to 20 | CCc1c(N[C@@H]2CCOC2)nc(-c2cccc(OCC(O)CNC)c2)nc1N1CCOCC1 (stereo partly shown) [Example 404-1a] |
| 0.1 to 1 | 10 to 20 | CNCC(O)COc1cccc(-c2nc(N[C@@H]3CCOC3)c(C)c(-c3ccnc(-n4ccnc4)c3)n2)c1 (stereo partly shown) [Example 405-1a] |
| 0.1 to 1 | 5 to 10 | CNCC(O)COc1cccc(-c2nc(N[C@@H]3CCOC3)c(C)c(-c3ccnc(OCCOC)c3)n2)c1 (stereo partly shown) [Example 406-1a] |
| 0.1 to 1 | 10 to 20 | CNCC(O)COc1cccc(-c2nc(N[C@@H]3CCOC3)c(C)c(-c3ccnc(N4CCC4)c3)n2)c1 (stereo partly shown) [Example 407-1a] |
| 0.1 to 1 | 10 to 20 | CNCC(O)COc1cccc(-c2nc(N[C@@H]3CCOC3)c(C)c(-c3ccc(=O)[nH]c3)n2)c1 (stereo partly shown) [Example 409-1a] |
| 0.1 to 1 | 5 to 10 | CNCC(O)COc1cccc(-c2nc(N3CCN(C(C)=O)[C@@H](C)C3)c(C)c(N(C)[C@@H]3CCOC3)n2)c1 (stereo partly shown) [Example 410-1a] |
| 0.1 to 1 | 10 to 20 | CNCC(O)COc1cccc(-c2nc(N[C@@H]3CCOC3)c(C3CC3)c(N3CCOCC3)n2)c1 (stereo partly shown) [Example 413-1a] |
| 0.1 to 1 | 10 to 20 | CNCC(O)COc1cccc(-c2nc(N[C@@H]3CCOC3)c(C)c(-c3cnn(CC(F)(F)F)c3)n2)c1 (stereo partly shown) [Example 414-1a] |
| 3 to 10 | 10 to 20 | CNCC(O)COc1cccc(-c2nc(N[C@@H]3CCOC3)c(C)c(-c3cccnc3N)n2)c1 (stereo partly shown) [Example 416-1a] |
| 0.1 to 1 | 10 to 20 | CNCC(O)COc1cccc(-c2nc(N[C@@H]3CCOC3)c(C)c(N3CCn4cnnc4C3)n2)c1 (stereo partly shown) [Example 418-1a] |
| 0.1 to 1 | 10 to 20 | CNCC(O)COc1cccc(-c2nc(NC3CCOC3)c(C)c(N3CCNC(C(F)(F)F)C3)n2)c1 (stereo not shown) [Example 419-1a] |
